Values after ≈ are worked out from the molar mass of the structure shown. Values joined by “and” are separate entries in the source; they are usually repeats but may differ in a detail not shown here. Identical values can stand only once.

The target of one data set is cytochrome P450 2C9 (Homo sapiens, UniProt P11712). In words: Determining the cyp2C9 activity (O-demethylation of [O-methyl-14C]-naproxen). The class given is in vitro ADME. The conditions noted are these: human recombinant cytochrome P450 2C9; 37° C.; <0.4 μM when inhibition >50% at lowest concentration; read-out: CYP 2C9 IC50. How it is done: Determining the cyp2C9 Activity:
The assay is carried out in a robot system with 96-well plates. The final incubation volume is 200 μl of TRIS-Puffer (0.1 M), magnesium chloride (5 mM), recombinant protein (40 pmol/ml), ^14C-labelled naproxen (80 μM) and the test compound in one of 4 concentrations (50 μM, 10 μM, 2 μM and 0.4 μM) as a duplicate in each case. After a short preincubation period the reactions are started by the addition of the cofactor (NADPH, 1 mM) and ended after 15 min by the addition of 50 μl of a 10% aqueous trichloroacetic acid solution. One aliquot of the incubate is transferred onto a 96-well solid phase extraction plate and extracted. The ^14C-formaldehyde formed during the reaction is not retained on the solid phase extraction plate and is thus separated from the unmetabolised substrate by washing the solid phase extraction plate with water. One aliquot of the eluate is transferred into a well plate suitable for liquid scintillation. […] The IC50 is determined by the least squares method using the following formula: control activity=(100% control activity/(1+(I/IC50)S))−B where I=Inhibitor concentration S=Pitch B=Background activity
When the inhibition of the reaction is >50% even at the lowest concentration of the test compound, the IC50 is given as <0.4 μM.

Data set [1] can be described thus: Determining the solubility (saturated solution in McIlvaine buffer pH 7.4, UV spectroscopy). The class given is physicochemical. The conditions noted are these: pH 7.4, aqueous buffer, thermodynamic from solid, shaken 2 hours, 0.75 mg solid in 0.75 ml. As for the experimental part:
Determining the Solubility:
Saturated solutions are prepared in suitable well dishes by adding 0.75 ml of a McIlvaine buffer (pH 7.4) to the well in question containing 0.75 mg of solid of an active substance. The wells are shaken for 2 hours and then filtration is carried out through a suitable filter membrane (typically polytetrafluoroethylene with a pore size of 0.45 μm). Filter absorption is prevented by discarding the first few drops of filtrate. The amount of active substance dissolved is determined by UV spectroscopy.

Another data set deals with p38 MAP-kinase (Homo sapiens, UniProt Q16539). Briefly: p38 MAP-kinase enzymatic assay (phosphorylation of GST-tagged ATF2, chemoluminescence). The conditions noted are these: inhibitor concentration 1 μM, activated p38 MAP-kinase 1 nM, ATP 100 μM; for inhibition at 1 µM: read-out: p38 (% Inh @ 1 μM). It is filed as biochemical. As for the experimental part:
In this, the amount of a substrate phosphorylated by the kinase is quantified. The test is carried out as follows:
The kinase reaction is carried out in the presence of HEPES (20 mM, pH 7), MgCl2 (10 mM), DTT (1 mM) and TWEEN20 (0.01%). First, dimethylsulphoxide or inhibitor (final concentration: 1 μM) dissolved in dimethylsulphoxide are placed in a reaction vessel. Then the activated p38 MAP-kinase (final concentration 1 nM) is added and the mixture is incubated for 4 h at ambient temperature. Then a mixture of substrate (GST-tagged ATF2) and ATP is added and everything is incubated together for a further hour (final concentration ATP: 100 μM; final concentration ATF2: 10 nM).
The concentration of phosphorylated ATF2 is quantified by chemoluminescence-induced light emission. For this, a glutathione donor bead (final concentration: 5 μg/ml) which binds to the gluthathione on the ATF2 and phospho-ATF2 antibodies are added to the reaction mixture (final concentration: 3 nM; this binds the phosphate group added by the kinase reaction) to which a Protein A Acceptor Bead (final concentration: 5 μg/ml) binds. These components are dissolved in a buffer which contains 20 mM HEPES pH 7.0, 200 mM NaCL, 80 mM EDTA as well as 0.3% BSA. This reaction mixture is incubated in the dark for 1 hour at ambient temperature. When these beads come physically close, visible light is emitted which is measured in a photometer at 520-620 nm.
To determine the inhibitory activity of the compounds according to the invention a calculation is made to determine the percentage by which the kinase activity is inhibited at a fixed inhibitor concentration of 1 μM. The maximum activity is determined by non-inhibited kinase. The minimum activity or nonspecific background activity is determined using a reaction mixture without kinase.
Table 2 summarises the degree of inhibition of the enzyme p38 MAP-kinase—as described hereinbefore—mediated by the compounds according to the invention detailed in the section “Preparation of the final compounds”.

Sequence of p38 MAP-kinase (Q16539 whole entry): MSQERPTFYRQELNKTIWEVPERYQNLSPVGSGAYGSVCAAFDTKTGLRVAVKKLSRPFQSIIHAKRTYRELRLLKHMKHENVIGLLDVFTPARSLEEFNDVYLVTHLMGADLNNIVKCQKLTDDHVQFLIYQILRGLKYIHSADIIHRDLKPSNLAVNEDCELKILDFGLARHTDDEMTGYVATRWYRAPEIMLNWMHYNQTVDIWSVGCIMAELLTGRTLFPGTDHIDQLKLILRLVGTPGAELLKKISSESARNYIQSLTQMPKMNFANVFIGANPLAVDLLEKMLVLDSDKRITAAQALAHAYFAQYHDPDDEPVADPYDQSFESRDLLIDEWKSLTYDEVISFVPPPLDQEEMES
Sequence of cytochrome P450 2C9 (P11712 whole entry): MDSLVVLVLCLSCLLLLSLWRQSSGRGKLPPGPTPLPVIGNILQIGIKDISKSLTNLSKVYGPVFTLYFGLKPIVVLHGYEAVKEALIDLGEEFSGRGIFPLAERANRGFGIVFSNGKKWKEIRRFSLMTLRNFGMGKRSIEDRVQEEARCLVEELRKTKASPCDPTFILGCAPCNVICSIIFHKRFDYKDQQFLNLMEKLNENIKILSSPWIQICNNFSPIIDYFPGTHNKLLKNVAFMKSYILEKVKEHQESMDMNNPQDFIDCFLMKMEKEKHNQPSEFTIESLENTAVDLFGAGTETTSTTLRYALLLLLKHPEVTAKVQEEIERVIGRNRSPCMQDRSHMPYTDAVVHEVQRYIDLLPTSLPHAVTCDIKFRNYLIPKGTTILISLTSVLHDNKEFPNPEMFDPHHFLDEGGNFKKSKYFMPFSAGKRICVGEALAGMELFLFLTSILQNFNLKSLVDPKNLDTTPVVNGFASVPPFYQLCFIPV

As for `COc1c(NC(=O)c2cc3cccc(CN4CCN(C(=O)[C@H]5C[C@@H](OC)CN5C)CC4)c3n2C)cc(C(C)(C)C)cc1NS(C)(=O)=O` [1(9), 7-[4-((2R,4R)-4-methoxy-1-methyl-pyrrolidine-2-carbonyl)-piperazin-1-ylmethyl]-1-methyl-1H-indole-2-carboxylic acid(5-tert-butyl-3-methanesulphonylamino-2-methoxy-phenyl)-amide], the IC50 on cytochrome P450 2C9 was determined as 1120 nM. In data set [1], this molecule gave a solubility at 2 h of 440 µg/mL (≈ 658 µM). Also, at p38 MAP-kinase, the inhibition at 1 µM stood at 98.9%.
The matching figures for `COc1c(NC(=O)c2cc3cccc(CC4CCN(C(=O)[C@@H]5CCCN5C)CC4)c3n2C)cc(C(C)(C)C)cc1NS(C)(=O)=O` [1(7), (S)-1-methyl-7-[1-(1-methyl-pyrrolidine-2-carbonyl)-piperidin-4-ylmethyl]-1H-indole-2-carboxylic acid(5-tert-butyl-3-methanesulphonylamino-2-methoxy-phenyl)-amide]: 780 nM, 170 µg/mL (≈ 267 µM) and 98.9%.
The matching figures for `COc1c(NC(=O)c2cc3cccc(CN4CCN(C(=O)CC5CC5)CC4)c3n2C)cc(C(C)(C)C)cc1NS(C)(=O)=O` [Va, reference compound]: below 400 nM, below 1 µg/mL and 98.8%.
The matching figures for `COc1c(NC(=O)c2cc3cccc(CN4CCN(C(=O)C5CNC5)CC4)c3n2C)cc(C(C)(C)C)cc1NS(C)(=O)=O` [Example 3, 7-[4-(azetidine-3-carbonyl)-piperazin-1-ylmethyl]-1-methyl-1H-indole-2-carboxylic acid (5-tert-butyl-3-methanesulphonylamino-2-methoxy-phenyl)-amide]: 1260 nM, 85 µg/mL (≈ 139 µM) and 99%.
Regarding `COc1c(NC(=O)c2cc3cccc(CN4CCCN(C(=O)[C@H]5CCN(C)C5)CC4)c3n2C)cc(C(C)(C)C)cc1NS(C)(=O)=O` [5(1), (S)-1-methyl-7-[4-(1-methyl-pyrrolidine-3-carbonyl)-[1,4]diazepan-1-ylmethyl]-1H-indole-2-carboxylic acid-(5-tert-butyl-3-methanesulphonylamino-2-methoxy-phenyl)-amide], the IC50 on cytochrome P450 2C9 came to 2040 nM. In data set [1], this molecule gave a solubility at 2 h of 170 µg/mL (≈ 260 µM). Besides, the inhibition at 1 µM at p38 MAP-kinase was 94.9%.
The like results for `CCN(CC)C1CCN(Cc2cc(C(C)(C)C)cc(NC(=O)c3cc4cccc(CN5CCN(C(=O)[C@@H]6CCCN6C)CC5)c4n3C)c2OC)CC1` [9(6), (S)-1-methyl-7-[4-(1-methyl-pyrrolidine-2-carbonyl)-piperazin-1-ylmethyl]-1H-indole-2-carboxylic acid-[5-tert-butyl-3-(4-diethylamino-piperidin-1-ylmethyl)-2-methoxy-phenyl]-amide] were, in that order, 10400 nM, 470 µg/mL (≈ 658 µM) and 97.7%.
Turning to `COc1c(CO)cc(C(C)(C)C)cc1NC(=O)c1cc2cccc(CN3CCN(C(=O)[C@@H]4CCCN4C)CC3)c2n1C` [Example 15, (S)-1-methyl-7-[4-(1-methyl-pyrrolidine-2-carbonyl)-piperazin-1-ylmethyl]-1H-indole-2-carboxylic acid-(5-tert-butyl-3-hydroxymethyl-2-methoxy-phenyl)-amide], the IC50 on cytochrome P450 2C9 is 2540 nM. The solubility at 2 h in data set [1] was determined as 230 µg/mL (≈ 399 µM). Moreover, on p38 MAP-kinase, the inhibition at 1 µM is 99.4%.
Consider `COc1c(NC(=O)c2cc3cccc(CN4CCN(C(=O)[C@@H]5CCCN5C)CC4)c3n2C)cc(C(C)(C)C)cc1[S+](C)[O-]` (stereo partly drawn) [11(3), 1-methyl-7-[4-((2S)-1-methyl-pyrrolidine-2-carbonyl)-piperazin-1-ylmethyl]-1H-indole-2-carboxylic acid-(5-tert-butyl-3-methanesulphinyl-2-methoxy-phenyl)-amide], for which the half-maximal inhibitory concentration (IC50) on cytochrome P450 2C9 was 780 nM and 870 nM and 560 nM. Also, at p38 MAP-kinase, the “p38 (% Inh @ 1 μM)” value is 99.0% and 98.7%; the inhibition at 1 µM was 98.6%.

(Values after patent US8686022B2, “7-(piperazine-1-ymethyl)-1H-indole-2-carboxylic acid (phenyl)-amide derivatives and allied compounds as p38 MAP kinase inhibitors for the treatment of respiratory diseases” (Boehringer Ingelheim International GmbH, priority 2008, dated 2014).)
